# Literature values as cited in publication PMC9199361 (Inorganic chemistry, 2020).
# Legend:
# [1] = for log KML: copper(II) complex of the chelator
# [2] = 5 M HCl, 90 °C
# [3] = copper complex of the chelator
Compound,thermodynamic stability constant (log KML) ([1]; copper(II) complex),acid stability (conditions) [2],reversibility of the redox event at E1/2 [3],log KML [1],E1/2 (V) [3] [V]
O=C(O)CN1CCN(CC(=O)O)CCN(CC(=O)O)CC1 [NOTA],21.9,"<3 min (5 M HCl, 90 °C)",irrev,,
O=C(O)CN1CCCN2CCN(CCCN(CC(=O)O)CC2)CC1 [CB-TE2A],,"254 h (5 M HCl, 90 °C)",quasi-rev,27.1,−0.88
O=C(O)CN1CCCN(CC(=O)O)CCN(CC(=O)O)CCCN(CC(=O)O)CC1 [TETA],,"<4.5 min (5 M HCl, 90 °C)",irrev,21.9,−0.980
